Experimental data taken from US20200361895A1, “NOVEL SULFONAMIDE CARBOXAMIDE COMPOUNDS” (Inflazome Limited, priority 2017, published 2020).
Where a name gives a salt, the structure may show the parent alone.

These compounds were tested against NLRP3 (Homo sapiens, UniProt Q96P20) (assay: THP-1 cells pyroptosis assay (LPS + nigericin, resazurin readout; THP IC50)).
Chain of NLRP3 (Q96P20 whole entry): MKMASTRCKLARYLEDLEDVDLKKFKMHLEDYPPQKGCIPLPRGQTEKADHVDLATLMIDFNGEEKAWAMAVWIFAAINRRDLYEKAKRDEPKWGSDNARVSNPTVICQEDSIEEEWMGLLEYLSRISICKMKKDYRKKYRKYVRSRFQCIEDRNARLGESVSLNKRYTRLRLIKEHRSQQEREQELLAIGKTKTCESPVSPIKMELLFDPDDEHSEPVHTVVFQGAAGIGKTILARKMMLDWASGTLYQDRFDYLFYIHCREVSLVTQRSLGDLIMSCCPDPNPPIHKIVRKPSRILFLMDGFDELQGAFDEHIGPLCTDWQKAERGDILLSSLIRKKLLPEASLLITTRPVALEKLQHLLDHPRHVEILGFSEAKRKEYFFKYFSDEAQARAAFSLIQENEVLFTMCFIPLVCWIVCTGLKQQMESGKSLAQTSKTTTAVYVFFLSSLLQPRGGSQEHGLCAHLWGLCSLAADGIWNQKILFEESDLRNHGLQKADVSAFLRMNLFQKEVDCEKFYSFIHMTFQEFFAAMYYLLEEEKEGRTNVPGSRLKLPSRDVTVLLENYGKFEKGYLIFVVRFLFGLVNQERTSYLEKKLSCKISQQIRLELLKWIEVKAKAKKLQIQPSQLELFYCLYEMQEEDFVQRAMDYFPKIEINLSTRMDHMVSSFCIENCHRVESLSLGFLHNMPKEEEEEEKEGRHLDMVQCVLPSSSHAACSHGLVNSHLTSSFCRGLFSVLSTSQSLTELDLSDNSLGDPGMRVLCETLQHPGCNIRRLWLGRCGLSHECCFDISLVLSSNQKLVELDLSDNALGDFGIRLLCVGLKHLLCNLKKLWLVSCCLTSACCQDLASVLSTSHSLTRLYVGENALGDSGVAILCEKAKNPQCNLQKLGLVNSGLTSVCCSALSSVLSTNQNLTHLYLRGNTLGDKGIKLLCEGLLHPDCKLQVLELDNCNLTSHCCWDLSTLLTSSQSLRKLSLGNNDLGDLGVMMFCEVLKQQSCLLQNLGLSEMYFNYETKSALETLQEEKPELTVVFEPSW
Assay type: cell-based
Design: Seed THP-1 cells (25,000 cells/well) containing 1.0 μg/ml LPS in 40 μl of RPMI medium; host or cells: THP-1 cells
Method: THP-1 cells (ATCC #TIB-202) were grown in RPMI containing L-glutamine (Gibco #11835) supplemented with 1 mM sodium pyruvate (Sigma #S8636) and penicillin (100 units/ml)/streptomycin (0.1 mg/ml) (Sigma #P4333) in 10% Fetal Bovine Serum (FBS) (Sigma #F0804). The cells were routinely passaged and grown to confluency (˜10^6 cells/ml). On the day of the experiment, THP-1 cells were harvested and resuspended into RPMI medium (without FBS). The cells were then counted and viability (>90%) checked by Trypan blue (Sigma #T8154). Appropriate dilutions were made to give a concentration of 625,000 cells/ml. To this diluted cell solution was added LPS (Sigma #L4524) to give a 1 μg/ml Final Assay Concentration (FAC). 40 μl of the final preparation was aliquoted into each well of a 96-well plate. The plate thus prepared was used for compound screening.
The following method step-by-step assay was followed for compound screening. • 1. Seed THP-1 cells (25,000 cells/well) containing 1.0 μg/ml LPS in 40 μl of RPMI medium (without FBS) in 96-well, black walled, clear bottom cell culture plates coated with poly-D-lysine (VWR #734-0317) • 2. Add 5 μcompound (8 points half-log dilution, with 10 μM top dose) or vehicle (DMSO 0.1% FAC) to the appropriate wells • 3. Incubate for 3 hrs at 37° C. and 5% CO2 • 4. Add 5 μnigericin (Sigma #N7143) (FAC 5 μM) to all wells • 5. Incubate for 1 hr at 37° C. and 5% CO2 • 6. At the end of the incubation period, spin plates at 300×g for 3 mins and remove supernatant • 7. Then add 50 μl of resazurin (Sigma #R7017) (FAC 100 μM resazurin in RPMI medium without FBS) and incubate plates for a further 1-2 hrs at 37° C. and 5% CO2 • 8. Plates were read in an Envision reader at Ex 560 nm and Em 590 nm • 9. IC50 data is fitted to a non-linear regression equation (log inhibitor vs response-variable slope 4-parameters)
In the case of `CC(C)c1cc(F)cc(-c2ccnc(C#N)c2)c1NC(=O)NS(=O)(=O)C1CN(C(C)C)C1` [Example 74, N-((2-(2-Cyanopyridin-4-yl)-4-fluoro-6-isopropylphenyl)carbamoyl)-1-isopropylazetidine-3-sulfonamide], the IC50 is reported as ≤ 10 µM.
With `COc1cc(-c2cc(F)cc(C(C)C)c2NC(=O)NS(=O)(=O)C2CN(C(C)C)C2)ccn1` [Example 75, N-((4-Fluoro-2-isopropyl-6-(2-methoxypyridin-4-yl)phenyl)carbamoyl)-1-isopropylazetidine-3-sulfonamide] the IC50 was ≤ 0.5 µM.
For `CC(C)c1cc(F)cc(-c2ccnc(C#N)c2)c1NC(=O)NS(=O)(=O)C1CN(C2CCC2)C1` [Example 78, N-((2-(2-Cyanopyridin-4-yl)-4-fluoro-6-isopropylphenyl)carbamoyl)-1-cyclobutylazetidine-3-sulfonamide], the IC50 was ≤ 10 µM.
With `COc1cc(-c2cc(F)cc(C(C)C)c2NC(=O)NS(=O)(=O)C2CN(C3CCC3)C2)ccn1` [Example 79, 1-Cyclobutyl-N-((4-fluoro-2-isopropyl-6-(2-methoxypyridin-4-yl)phenyl)carbamoyl)azetidine-3-sulfonamide] the IC50 was ≤ 0.5 µM.
In the case of `COc1cc(-c2ccc3c(c2NC(=O)NS(=O)(=O)C2CN(C4CCC4)C2)CCC3)ccn1` [Example 80, 1-Cyclobutyl-N-((5-(2-methoxypyridin-4-yl)-2,3-dihydro-1H-inden-4-yl)carbamoyl)azetidine-3-sulfonamide], the IC50 is reported as ≤ 0.5 µM.
`CCN1CC(S(=O)(=O)NC(=O)Nc2c(-c3ccnc(C#N)c3)cc(F)cc2C(C)C)C1` [Example 82, N-((2-(2-Cyanopyridin-4-yl)-4-fluoro-6-isopropylphenyl)carbamoyl)-1-ethylazetidine-3-sulfonamide] was tested, and the IC50 was ≤ 10 µM.
For `CCN1CC(S(=O)(=O)NC(=O)Nc2c(-c3ccncc3)cc(F)c3c2CCC3)C1` [Example 85, 1-Ethyl-N-((7-fluoro-5(pyridin-4-yl)-2,3-dihydro-1H-inden-4-yl)carbamoyl)azetidine-3-sulfonamide], the IC50 was ≤ 1 µM.
With `CC(C)c1cc(F)cc(-c2ccnc(C#N)c2)c1NC(=O)NS(=O)(=O)C1CN(Cc2cccnc2)C1` [Example 86, N-((2-(2-Cyanopyridin-4-yl)-4-fluoro-6-isopropylphenyl)carbamoyl)-1-(pyridin-3-ylmethyl)azetidine-3-sulfonamide] the IC50 was ≤ 10 µM.
`O=C(Nc1c(-c2ccncc2)cc(F)c2c1CCC2)NS(=O)(=O)C1CN(Cc2cccnc2)C1` [Example 88, N-((7-Fluoro-5-(pyridin-4-yl)-2,3-dihydro-1H-inden-4-yl)carbamoyl)-1-(pyridin-3-ylmethyl)azetidine-3-sulfonamide] was tested, and the IC50 was ≤ 1 µM.
With `CC(C)c1cc(F)cc(-c2ccnc(C#N)c2)c1NC(=O)NS(=O)(=O)c1ccc(=O)n(C(C)C)c1` [Example 89, N-((2-(2-cyanopyridin-4-yl)-4-fluoro-6-isopropylphenyl)carbamoyl)-1-isopropyl-6-oxo-1,6-dihydropyridine-3-sulfonamide] the IC50 was ≤ 0.5 µM.
With `COc1cc(-c2cc(F)cc(C(C)C)c2NC(=O)NS(=O)(=O)c2ccc(=O)n(C(C)C)c2)ccn1` [Example 90, N-((4-Fluoro-2-isopropyl-6-(2-methoxypyridin-4-yl)phenyl)carbamoyl)-1-isopropyl-6-oxo-1,6-dihydropyridine-3-sulfonamide] the IC50 was ≤ 0.5 µM.
In the case of `CC(C)c1cc(F)cc(-c2cccnc2)c1NC(=O)NS(=O)(=O)C1CCN(C(C)C)CC1` [Example 93, N-((4-Fluoro-2-isopropyl-6-(pyridin-3-yl)phenyl)carbamoyl)-1-isopropylpiperidine-4-sulfonamide], the IC50 is reported as ≤ 10 µM.
With `CCN1CCC(S(=O)(=O)NC(=O)Nc2c(-c3ccnc(OC)c3)cc(F)c3c2CCC3)CC1` [Example 97, 1-Ethyl-N-((7-fluoro-5-(2-methoxypyridin-4-yl)-2,3-dihydro-1H-inden-4-yl)carbamoyl)piperidine-4-sulfonamide, potassium salt] the IC50 was ≤ 5 µM.
For `CCN1CCC(S(=O)(=O)NC(=O)Nc2c(-c3ccnc(C#N)c3)ccc3c2CCC3)CC1` [Example 99, N-((5-(2-Cyanopyridin-4-yl)-2,3-dihydro-1H-inden-4-yl)carbamoyl)-1-ethylpiperidine-4-sulfonamide, potassium salt], the IC50 was ≤ 10 µM.
`CCN1CCC(S(=O)(=O)NC(=O)Nc2c(-c3ccnc(OC)c3)cc(F)cc2C(C)C)CC1` [Example 100, 1-Ethyl-N-((4-fluoro-2-isopropyl-6-(2-methoxypyridin-4-yl)phenyl)carbamoyl)piperidine-4-sulfonamide, potassium salt] was tested, and the IC50 was ≤ 5 µM.
With `CC(C)c1cc(F)cc(-c2ccnc(C#N)c2)c1NC(=O)NS(=O)(=O)c1cncc(N(C)C)n1` [Example 102, N-((2-(2-Cyanopyridin-4-yl)-4-fluoro-6-isopropylphenyl)carbamoyl)-6-(dimethylamino)pyrazine-2-sulfonamide] the IC50 was ≤ 0.5 µM.
In the case of `COc1cc(-c2cc(F)cc(C(C)C)c2NC(=O)NS(=O)(=O)c2cnc(N(C)C)cn2)ccn1` [Example 107, 5-(Dimethylamino)-N-((4-fluoro-2-isopropyl-6-(2-methoxypyridin-4-yl)phenyl)carbamoyl)pyrazine-2-sulfonamide], the IC50 is reported as ≤ 0.5 µM.
With `CC(C)c1cc(F)cc(-c2ccnc(C#N)c2)c1NC(=O)NS(=O)(=O)c1nccnc1C(F)F` [Example 110, N-((2-(2-Cyanopyridin-4-yl)-4-fluoro-6-isopropylphenyl)carbamoyl)-3-(difluoromethyl)pyrazine-2-sulfonamide] the IC50 was ≤ 10 µM.
With `COc1cc(-c2cc(F)cc(C(C)C)c2NC(=O)NS(=O)(=O)c2nccnc2C(F)F)ccn1` [Example 111, 3-(Difluoromethyl)-N-((4-fluoro-2-isopropyl-6-(2-methoxypyridin-4-yl)phenyl)carbamoyl)pyrazine-2-sulfonamide] the IC50 was ≤ 5 µM.
`COc1cc(-c2ccc3c(c2NC(=O)NS(=O)(=O)c2nccnc2C(F)F)CCC3)ccn1` [Example 112, 3-(Difluoromethyl)-N-((5-(2-methoxypyridin-4-yl)-2,3-dihydro-1H-inden-4-yl)carbamoyl)pyrazine-2-sulfonamide] was tested, and the IC50 was ≤ 1 µM.
In the case of `O=C(Nc1c(-c2ccncc2)cc(F)c2c1CCC2)NS(=O)(=O)c1nccnc1C(F)F` [Example 113, 3-(Difluoromethyl)-N-((7-fluoro-5-(pyridin-4-yl)-2,3-dihydro-1H-inden-4-yl)carbamoyl)pyrazine-2-sulfonamide], the IC50 is reported as ≤ 5 µM.
In the case of `COc1cc(-c2cc(F)cc(C(C)C)c2NC(=O)NS(=O)(=O)c2nc(C)cc(C)n2)ccn1` [Example 115, N-((4-Fluoro-2-isopropyl-6-(2-methoxypyridin-4-yl)phenyl)carbamoyl)-4,6-dimethylpyrimidine-2-sulfonamide], the IC50 is reported as ≤ 0.5 µM.
In the case of `CC(C)c1cc(F)cc(-c2ccnc(C#N)c2)c1NC(=O)NS(=O)(=O)Cc1ccccc1` [Example 127, N-((2-(2-Cyanopyridin-4-yl)-4-fluoro-6-isopropylphenyl)carbamoyl)-1-phenylmethanesulfonamide], the IC50 is reported as ≤ 10 µM.
`COc1cc(-c2cc(F)cc(C(C)C)c2NC(=O)NS(=O)(=O)Cc2ccccc2)ccn1` [Example 128, N-((4-Fluoro-2-isopropyl-6-(2-methoxypyridin-4-yl)phenyl)carbamoyl)-1-phenylmethanesulfonamide] was tested, and the IC50 was ≤ 1 µM.
In the case of `COc1cc(-c2ccc3c(c2NC(=O)NS(=O)(=O)Cc2ccccc2)CCC3)ccn1` [Example 129, N-((5-(2-Methoxypyridin-4-yl)-2,3-dihydro-1H-inden-4-yl)carbamoyl)-1-phenylmethanesulfonamide], the IC50 is reported as ≤ 5 µM.
For `O=C(Nc1c(-c2ccncc2)cc(F)c2c1CCC2)NS(=O)(=O)Cc1ccccc1` [Example 130, N-((7-Fluoro-5-(pyridin-4-yl)-2,3-dihydro-1H-inden-4-yl)carbamoyl)-1-phenylmethanesulfonamide], the IC50 was ≤ 5 µM.
With `CC(C)CS(=O)(=O)NC(=O)Nc1c(-c2ccnc(C#N)c2)cc(F)cc1C(C)C` [Example 131, N-((2-(2-Cyanopyridin-4-yl)-4-fluoro-6-isopropylphenyl)carbamoyl)-2-methylpropane-1-sulfonamide] the IC50 was ≤ 10 µM.
In the case of `COc1cc(-c2cc(F)cc(C(C)C)c2NC(=O)NS(=O)(=O)CC(C)C)ccn1` [Example 132, N-((4-Fluoro-2-isopropyl-6-(2-methoxypyridin-4-yl)phenyl)carbamoyl)-2-methylpropane-1-sulfonamide], the IC50 is reported as ≤ 1 µM.
In the case of `COc1cc(-c2ccc3c(c2NC(=O)NS(=O)(=O)CC(C)C)CCC3)ccn1` [Example 133, N-((5-(2-Methoxypyridin-4-yl)-2,3-dihydro-1H-inden-4-yl)carbamoyl)-2-methylpropane-1-sulfonamide], the IC50 is reported as ≤ 0.5 µM.
